Reference: patent EP3225590A1 (Université de Strasbourg, priority 2016, dated 2017)
Values joined by “and” are separate entries in the source; they are usually repeats but may differ in a detail not shown here. Equal entries are not always repeated. Where two headings read alike, the source gives them in different places.

What was measured:
ANR-L1 = test: Fluorescence titration of ANR-L1 suspension with analyte, 1:1 single-site binding fit; settings: for factor weaker binding in the presence of 50 mM Trp than in the absence: ANR-L1, 50 mM Trp as potential competitor
ANR-Y1 = test: Fluorescence titration of ANR-Y1 suspension with analyte, 1:1 single-site binding fit
ANR-L2 = test: Fluorescence titration of ANR-L2 suspension with analyte, 1:1 single-site binding fit
From the text: (§1) This fitting procedure was used in favour of a Stern-Volmer analysis, because linearized binding plots are known to produce errors in Kd.
(§2) Herein, FA is the intensity at a given analyte concentration and F0 is the emission intensity before analyte addition. ΔF is a measure of the relative emission increase or decrease caused by the analyte. For fully non emissive AB complexes, i.e. when the analyte A is an efficient quencher, ΔF reaches -1. The quantity cA denotes the concentration of the analyte A and cB denotes the concentration of the "binding stations" in the ANR.
(§3) The values Kd and ΔF result from the non-least square fit given the input FA, F0, cA and cB.
(§4) The concentration cA of the analyte follows directly from the concentration of the stock solution and the added volume to the cuvette with the suspension of the ANR. The concentration cB of the single binding sites per ANR suspension is a priori not known. […] This so obtained value cB was then used as a constant for the fitting of the binding isotherms of the weaker binding analytes. […] In addition, it is reassuring to note that the value of the affinity constant Kd is rather insensitive to the concentration cB.

[1] = cucurbit[7]uril, ref. [9]; read-out: Kd(5-HT); cited from earlier work
ANR-L4 = test: Fluorescence titration of ANR-L4 suspension with analyte, 1:1 single-site binding fit
From the text: as §1, §2, §3, §4

ANR-L3 = test: Fluorescence titration of ANR-L3 suspension with analyte, 1:1 single-site binding fit
From the text: as §1, §2, §3, §4

CB8-D1 = CB8-D1 (cucurbit[8]uril and dye D1), in water, read-out: Kd (affinity), cited from earlier work
ANR-Y2 = test: Fluorescence titration of ANR-Y2 suspension with analyte, 1:1 single-site binding fit
From the text: as §1, §2, §3, §4

ANRs = settings: 100 µM concentration; ANR-Y2, ANR-L3 and ANR-L5
ANR1 = test: Binding of tryptophan to ANR1 at acidic pH (data not shown); settings: pH <3
[2] = 10 mM HEPES buffer (pH 7.3), ANR 250 µg/mL, >> = less than 10% change in emission intensity at >50 molar excess of analyte, error less than ±20%, read-out: Kd(ANR-L1)
[3] = ANR-L1 250 µg/mL, 10 mM HEPES buffer (pH 7.3) with 50 mM tryptophan added, read-out: Kd
[4] = 10 mM HEPES buffer (pH 7.3), ANR 250 µg/mL, >> = less than 10% change in emission intensity at >50 molar excess of analyte, error less than ±20%, read-out: Kd(ANR-Y1)
[5] = ANR-Y1 250 µg/mL, 10 mM HEPES buffer (pH 7.3), read-out: single site dissociation constant Kd
[6] = ANR-L3 250 µg/mL in 10 mM HEPES buffer, pH 7.3 (aqueous buffer)
[7] = stated for the larger-cavity zeolite-Y-based receptors, printed 'with ANR-L2'
[8] = read-out: single site dissociation constant Kd, ANR-Y2 250 µg/mL, 10 mM HEPES buffer (pH 7.3)

NCCc1c[nH]c2ccc(O)cc12 [serotonin (5-HT), serotonin]
Kd (ANR-L1; [2]): 3.3 µM | Kd (ANR-L1; [3]): 14 µM | Kd (ANR-L1; ANR-L1 250 µg/mL, ethanolic media (ethanol with 0.2 mM acetic acid), read-out: single site dissociation constant Kd): ~25 µM | Kd (ANR-L1; ANR-L1 250 µg/mL, water and aqueous buffer, read-out: single site dissociation constant Kd): ~3 µM | factor weaker binding in the presence of 50 mM Trp than in the absence (ANR-L1): ~ 4 | Kd (ANR-L1; read-out: approximated dissociation constant (Kd = 1/slope), Stern-Volmer plot, ANR-L1): 4 µM | Kd (ANR-Y1; [4]): 0.07 µM | Kd (ANR-Y1; [5]): 0.07 µM and ~0.07 µM | Kd (ANR-L2; read-out: approximated dissociation constant (Kd = 1/slope), Stern-Volmer plot, ANR-L2): 2 µM | Kd [1]: ~15 µM

Oc1ccccc1O [catechol]
Kd (ANR-L1; [2]): > 1000 µM | Kd (ANR-Y1; [4]): > 1000 µM

NCCc1ccccc1 [phenethylamine]
residual emission int. (ANR-L4; ANR-L4, at 25 µM of analyte): 75% | Kd (ANR-L4; ANR-L4, partial emission quenching): 19 µM | Kd (ANR-L3; [6]): 190 µM

NC[C@H](O)c1ccc(O)c(O)c1 [norepinephrine]
Kd (ANR-L1; [2]): 31 µM | Kd (ANR-Y1; [4]): 11 µM | Kd (ANR-L2; ANR-L2, zeolite-L based): 13 µM | Kd (ANR-L2; [7]): 26 µM

N[C@@H](Cc1c[nH]c2ccc(O)cc12)C(=O)O [5-HTP]
Kd (ANR-L1; [2]): > 1000 µM | Kd (ANR-Y1; [4]): > 1000 µM

NCCc1ccc(O)cc1 [tyramine]
Kd (ANR-L1; [2]): 27 µM | Kd (ANR-Y1; [4]): 5.7 µM | quenching of the emission of ANR-L3 (ANR-L3; titration curve shows saturation behaviour): 30%

O=C(O)Cc1c[nH]c2ccccc12 [indole-3-acetic acid]
Kd (ANR-L1; [2]): > 1000 µM | Kd (ANR-Y1; [4]): > 1000 µM

N[C@H](CO)C(=O)O [D-serine]
Kd (ANR-L1; [2]): > 1000 µM | Kd (ANR-Y1; [4]): > 1000 µM

N[C@@H](CCC(=O)O)C(=O)O [glutamate]
Kd (ANR-L1; [2]): > 1000 µM | Kd (ANR-Y1; [4]): > 1000 µM

COc1ccc2[nH]cc(CCNC(C)=O)c2c1 [melatonin]
Kd (ANR-L1; [2]): > 1000 µM | Kd (ANR-Y1; [4]): > 1000 µM

CC(=O)OCC[N+](C)(C)C [acetylcholin]
Kd (ANR-L1; [2]): > 1000 µM | Kd (ANR-Y1; [4]): > 1000 µM

CCC(=O)Nc1ccc(Cl)c(Cl)c1 [propanil]
Kd (ANR-L1; [2]): > 1000 µM | Kd (ANR-Y1; [4]): > 1000 µM

N[C@@H](Cc1c[nH]cn1)C(=O)O [histidine]
Kd (ANR-L1; [2]): > 1000 µM | Kd (ANR-Y1; [4]): > 1000 µM

NC(=O)[C@@H](N)Cc1c[nH]c2ccccc12 [TrpNH2]
Kd (ANR-L1; [2]): 32 µM | Kd (ANR-Y1; [4]): 0.11 µM | Kd (ANR-Y1; [5]): ~0.11 µM | Kd (CB8-D1; listed as TrpNF2): 2.2 µM | Kd (CB8-D1): ~2.2 µM | Kd (ANR-Y2; [8]): 2.7 µM

N[C@@H](Cc1ccccc1)C(=O)O [phenylalanine]
Kd (ANR-L1; [2]): > 1000 µM | Kd (ANR-Y1; [4]): > 1000 µM

CC(=O)Nc1ccc(O)cc1 [paracetamol]
Kd (ANR-L1; [2]): > 1000 µM | Kd (ANR-Y1; [4]): > 1000 µM

Nc1ncnc2c1ncn2[C@@H]1O[C@H](CO)[C@@H](O)[C@H]1O [adenosine]
Kd (ANR-L1; [2]): > 1000 µM | Kd (ANR-Y1; [4]): > 1000 µM

NCCO [ethanolamine]
Kd (ANR-L1; [2]): > 1000 µM | Kd (ANR-Y1; [4]): > 1000 µM

NCCc1c[nH]cn1 [histamine]
Kd (ANR-L3; [6]): 360 µM

CNC[C@H](O)c1cccc(O)c1 [phenylephrine]
Kd (ANR-L1; [2]): > 600 µM | Kd (ANR-Y1; [4]): 55 µM

N[C@@H](Cc1ccc(O)cc1)C(=O)O [tyrosine]
Kd (ANR-L1; [2]): > 1000 µM | Kd (ANR-Y1; [4]): > 1000 µM

c1ccc2[nH]ccc2c1 [indole]
Kd (ANR-L1; [2]): > 1000 µM | Kd (ANR-Y1; [4]): > 1000 µM

CN1CCCC1c1cccnc1 (stereo not drawn) [nicotine]
effect on emission intensity (ANRs): no appreciable effect

CNC[C@H](O)c1ccc(O)c(O)c1 [epinephrine]
Kd (ANR-L1; pH 7.3, read-out: Kd(ANR-L1)): > 600 µM | Kd (ANR-Y1; pH 7.3, read-out: Kd(ANR-Y1)): 26 µM | Kd (ANR-L2; ANR-L2, zeolite-L based): 240 µM | Kd (ANR-L2; [7]): 39 µM

NCCc1ccc(O)c(O)c1 [dopamine]
Kd (ANR-L1; [2]): 16 µM | Kd (ANR-L1; [3]): 48 µM | factor weaker binding in the presence of 50 mM Trp than in the absence (ANR-L1): ~ 3 | Kd (ANR-L4; read-out: approximated dissociation constant (Kd = 1/slope), Stern-Volmer plot, ANR-L4): 7 µM | Kd (ANR-Y1; [4]): 3.4 µM | Kd (ANR-Y1; read-out: approximated dissociation constant (Kd = 1/slope), Stern-Volmer plot, ANR-Y1): 4 µM | Kd (ANR-L3; read-out: approximated dissociation constant (Kd = 1/slope), Stern-Volmer plot, ANR-L3): 15 µM | Kd (ANR-Y2; read-out: approximated dissociation constant (Kd = 1/slope), Stern-Volmer plot, ANR-Y2): 10 µM | Kd (ANR-Y2; [8]): 9.5 µM

NCC(O)c1ccc(O)cc1 (stereo not drawn) [octopamine]
Kd (ANR-L1; [2]): 40 µM | Kd (ANR-Y1; [4]): 11 µM

CC(=O)CCc1ccc(O)cc1 [raspberry ketone]
Kd (ANR-L1; [2]): > 1000 µM | Kd (ANR-Y1; [4]): > 1000 µM

NCCc1c[nH]c2ccccc12 [tryptamine]
Kd (ANR-L1; [2]): 10 µM | Kd (ANR-L1; [3]): 27 µM | factor weaker binding in the presence of 50 mM Trp than in the absence (ANR-L1): ~ 3 | Kd (ANR-L1; read-out: single site dissociation constant Kd): 3 µM | Kd (ANR-Y1; [4]): 0.15 µM | Kd (ANR-L3; [6]): ~9 µM | Kd (ANR-L3; ANR-L3, neat chloroform (absence of acetic acid)): 15 µM | Kd (ANR-L3; read-out: single site dissociation constant Kd, ANR-L3 250 µg/mL, chloroform:acetic acid (99:1)): 4 µM

N[C@@H](Cc1c[nH]c2ccccc12)C(=O)O [tryptophan (Trp), tryptophan]
Kd (ANR-L1; [2]): > 1000 µM | Kd (ANR-Y1; [4]): > 1000 µM | Kd (CB8-D1): ~6.3 µM | binding to ANR1 (ANR1): binding | binding to ANR1 (ANR1; listed as trytophane): bind

NCC(=O)O [glycine (Gly), glycine]
Kd (ANR-L1; [2]): > 1000 µM | Kd (ANR-Y1; [4]): > 1000 µM

NCCCCCN [cadaverine]
Kd (ANR-L1; [2]): > 1000 µM | Kd (ANR-Y1; [4]): > 1000 µM

N[C@@H](Cc1ccc(O)c(O)c1)C(=O)O [L-DOPA]
Kd (ANR-L1; [2]): > 1000 µM | Kd (ANR-Y1; [4]): > 1000 µM
